According to ChEMBL document CHEMBL4811295, “The ester derivatives obtained by C-ring modification of podophyllotoxin induce apoptosis and inhibited proliferation in PC-3M cells via down-regulation of PI3K/Akt signaling pathway” (Bioorg Med Chem Lett, 2021):
Activity calls are given as the source filed them. The calls are words filed in the database; no cut-off is given here.

How the values were obtained:
PC-3M [1] = experiment: Cytotoxicity in human PC-3M cells assessed as inhibition of cell proliferation measured by CCK-8 assay; type: functional, cell-based
HMEC = experiment: Cytotoxicity in human HMEC cells assessed as inhibition of cell proliferation measured by CCK-8 assay; type: functional, cell-based
A549 = experiment: Cytotoxicity in human A549 cells assessed as inhibition of cell proliferation measured by CCK-8 assay; type: functional, cell-based
MCF7 = experiment: Cytotoxicity in human MCF7 cells assessed as inhibition of cell proliferation measured by CCK-8 assay; type: functional, cell-based
HepG2 = experiment: Cytotoxicity in human HepG2 cells assessed as inhibition of cell proliferation measured by CCK-8 assay; type: functional, cell-based
PC-3M [2] = experiment: Antiproliferative activity against human PC-3M cells assessed as inhibition of cell proliferation at 1 nM measured after 9 days by Crystal violet staining based colony formation assay; type: functional; conditions: time 9.0 day
PC-3M [3] = experiment: Induction of apoptosis in human PC-3M cells assessed as viable cells at 1 nM measured after 48 hrs by Annexin V/PI staining based flow cytometry method (reference value: 95.6%); type: functional; conditions: read-out: Activity
PC-3M [4] = experiment: Induction of apoptosis in human PC-3M cells assessed as early apoptotic cells at 1 nM measured after 48 hrs by Annexin V/PI staining based flow cytometry method (reference value: 1.25%); type: functional
PC-3M [5] = experiment: Induction of apoptosis in human PC-3M cells assessed as late apoptotic cells at 1 nM measured after 48 hrs by Annexin V/PI staining based flow cytometry method (reference value: 2.88%); type: functional
PC-3M [6] = experiment: Induction of apoptosis in human PC-3M cells assessed as necrotic cells at 1 nM measured after 48 hrs by Annexin V/PI staining based flow cytometry method (reference value: 0.25%); type: functional
PC-3M [7] = experiment: Induction of apoptosis in human PC-3M cells assessed as viable cells at 5 nM measured after 48 hrs by Annexin V/PI staining based flow cytometry method (reference value: 95.6%); type: functional; conditions: read-out: Activity
PC-3M [8] = experiment: Induction of apoptosis in human PC-3M cells assessed as early apoptotic cells at 5 nM measured after 48 hrs by Annexin V/PI staining based flow cytometry method (reference value: 1.25%); type: functional
PC-3M [9] = experiment: Induction of apoptosis in human PC-3M cells assessed as late apoptotic cells at 5 nM measured after 48 hrs by Annexin V/PI staining based flow cytometry method (reference value: 2.88%); type: functional
PC-3M [10] = experiment: Induction of apoptosis in human PC-3M cells assessed as necrotic cells at 5 nM measured after 48 hrs by Annexin V/PI staining based flow cytometry method (reference value: 0.25%); type: functional
PC-3M [11] = experiment: Induction of apoptosis in human PC-3M cells assessed as viable cells at 10 nM measured after 48 hrs by Annexin V/PI staining based flow cytometry method (reference value: 95.6%); type: functional; conditions: read-out: Activity
PC-3M [12] = experiment: Induction of apoptosis in human PC-3M cells assessed as early apoptotic cells at 10 nM measured after 48 hrs by Annexin V/PI staining based flow cytometry method (reference value: 1.25%); type: functional
PC-3M [13] = experiment: Induction of apoptosis in human PC-3M cells assessed as late apoptotic cells at 10 nM measured after 48 hrs by Annexin V/PI staining based flow cytometry method (reference value: 2.88%); type: functional
PC-3M [14] = experiment: Induction of apoptosis in human PC-3M cells assessed as necrotic cells at 10 nM measured after 48 hrs by Annexin V/PI staining based flow cytometry method (reference value: 0.25%); type: functional

SMILES | IC50 (PC-3M [1]) | IC50 (HMEC) | IC50 (A549) | IC50 (MCF7) | IC50 (HepG2) | Activity (PC-3M [2]) | viability at 0.001 µM (PC-3M [3]) | Activity (PC-3M [4]) | Activity (PC-3M [5]) | Activity (PC-3M [6]) | viability at 0.005 µM (PC-3M [7]) | Activity (PC-3M [8]) | Activity (PC-3M [9]) | Activity (PC-3M [10]) | viability at 0.01 µM (PC-3M [11]) | Activity (PC-3M [12]) | Activity (PC-3M [13]) | Activity (PC-3M [14])
C/C=C/C(=O)O[C@H]1c2cc3c(cc2[C@@H](c2cc(OC)c(OC)c(OC)c2)[C@H]2C(=O)OC[C@@H]21)OCO3 | 0.0124 µM | 0.0795 µM | 0.0402 µM | 80.9 µM | 109 µM | – | – | – | – | – | – | – | – | – | – | – | – | –
C/C=C/C=C/C(=O)O[C@H]1c2cc3c(cc2[C@@H](c2cc(OC)c(OC)c(OC)c2)[C@H]2C(=O)OC[C@@H]21)OCO3 | 1.09 µM | 0.424 µM | 0.143 µM | 127 µM | 2.34 µM | – | – | – | – | – | – | – | – | – | – | – | – | –
COc1cc([C@@H]2c3cc4c(cc3[C@H](O)[C@H]3COC(=O)[C@H]23)OCO4)cc(OC)c1OC [PODOFILOX] | 0.235 µM | 1.34 µM | 0.00537 µM | > 200 µM | > 200 µM | inactive | 94.4% | 1.71% | 3.78% | 0.083% | 87.6% | 3.17% | 9.11% | 0.17% | 75.7% | 3.31% | 20.9% | 0.11%
COc1cc([C@@H]2c3cc4c(cc3[C@H](OC(=O)[C@@H](NC(=O)OC(C)(C)C)C(C)C)[C@H]3COC(=O)[C@H]23)OCO4)cc(OC)c1OC | 2.52 µM | 2.44 µM | 11.2 µM | 89.1 µM | 10.9 µM | – | – | – | – | – | – | – | – | – | – | – | – | –
CCCCCCCCCCCCCCCC(=O)O[C@H]1c2cc3c(cc2[C@@H](c2cc(OC)c(OC)c(OC)c2)[C@H]2C(=O)OC[C@@H]21)OCO3 | 2.3 µM | 5.38 µM | 4.59 µM | > 200 µM | 117 µM | – | – | – | – | – | – | – | – | – | – | – | – | –
COc1cc([C@@H]2c3cc4c(cc3[C@H](OC(=O)c3cccs3)[C@H]3COC(=O)[C@H]23)OCO4)cc(OC)c1OC | 0.77 µM | 0.672 µM | 0.0684 µM | 26.5 µM | 26.9 µM | – | – | – | – | – | – | – | – | – | – | – | – | –
CCCCCCCCCCCCCCCCCC(=O)O[C@H]1c2cc3c(cc2[C@@H](c2cc(OC)c(OC)c(OC)c2)[C@H]2C(=O)OC[C@@H]21)OCO3 | 2.6 µM | 3.07 µM | 7.33 µM | > 200 µM | 141 µM | – | – | – | – | – | – | – | – | – | – | – | – | –
COc1cc([C@@H]2c3cc4c(cc3[C@H](OC(=O)[C@H](Cc3c[nH]c5ccccc35)NC(=O)OC(C)(C)C)[C@H]3COC(=O)[C@H]23)OCO4)cc(OC)c1OC | 0.00607 µM | 1.8 µM | 0.315 µM | > 200 µM | > 200 µM | – | – | – | – | – | – | – | – | – | – | – | – | –
CCCCCCCCCCCC(=O)O[C@H]1c2cc3c(cc2[C@@H](c2cc(OC)c(OC)c(OC)c2)[C@H]2C(=O)OC[C@@H]21)OCO3 | 1.25 µM | 0.936 µM | 0.539 µM | > 200 µM | 53.1 µM | – | – | – | – | – | – | – | – | – | – | – | – | –
CCCCCCCCCCCCCC(=O)O[C@H]1c2cc3c(cc2[C@@H](c2cc(OC)c(OC)c(OC)c2)[C@H]2C(=O)OC[C@@H]21)OCO3 | 1.73 µM | 2.75 µM | 1.07 µM | > 200 µM | 88.7 µM | – | – | – | – | – | – | – | – | – | – | – | – | –
